{"source": "patent US20240182436A1", "about": "“SUBSTITUTED SULFONAMIDE-CHROMAN COMPOUNDS, AND PHARMACEUTICAL COMPOSITIONS, AND METHODS OF USE THEREOF” (priority 2021, published 2024)"}
{"test_system": "Harmaline-induced tremor", "assay": "Harmaline-induced Tremor Model", "type": "in vivo", "details": "Mus musculus, ip, adult male CD1 mice; test article 30 mg/kg i.p.; harmaline 30 mg/kg i.p.; read-out: Tremor Suppression Activity (magnitude of tremor suppression in percent compared to vehicle)", "text": "(§1) Harmaline-induced Tremor: Harmaline-induced tremor is widely recognized as an animal model of Essential Tremor (ET). Following acute administration, harmaline produces an 8-16 Hz tremor in rodents, cats, and monkeys that, like ET, is postural and kinetic, involving appendicular and axial musculature (Handforth, A. (2012). Harmaline tremor: underlying mechanisms in a potential animal model of essential tremor. Tremor and Other Hyperkinetic Movements (NY), 2, 02-92-769-1; Handforth, A. (2016). Linking Essential Tremor to the Cerebellum-Animal Model Evidence. Cerebellum, 15(3), 285-298; LeDoux, M. (2005). Harmaline tremor. In Movement Disorders. Elsevier Inc.; Louis, E. D. (2014). Re-thinking the biology of essential tremor: From models to morphology. Parkinsonism and Related Disorders, 20 (SUPPL.1), S88-S93). […] Clinical agents that suppress ET in patients are generally effective in the harmaline-induced tremor model (Handforth 2016). Following acute dosing of harmaline in mice, the tremor frequency (10-20 Hz) is typically recorded using an automated force plate-based system.\n(§2) Procedure: Tremor activity was measured using a custom-made testing apparatus containing a piezoelectric sensing platform which was connected to an amplifier (A-M Systems model 1700). Adult male CD1 mice were brought to the experiment room for acclimatization 1 h prior to testing. Mice were first placed inside the testing apparatus for 10 min baseline habituation. After the initial habituation, mice were treated with vehicle (10 ml/kg) or test article (30 mg/kg, i.p.) and placed back in the apparatus for an additional 20 min baseline recording. Subsequently, animals were injected with harmaline (30 mg/kg, i.p.) and tremor activity was measured for 20 min. The electric signal of tremor activity was amplified at a sampling rate of 512 Hz with a multichannel amplifier and then acquired, quantized, and digitized by a data acquisition unit (CED Micro 1401). The software Spike2 (v 7.07, Cambridge Electronic Design, Cambridge, UK) was used to analyze the tremor signal by performing Fourier transformation of the data into frequency spectra. Changes in absolute power were expressed relative to each animal's 20-min baseline for the frequencies of 10-20 Hz. Comparisons between treatment and respective vehicle groups were assessed with two-tailed, Student's t-test. The level of statistical significance was defined as p<0.05 (see, e.g., Table 2.1) The magnitude of tremor suppression in percent compared to vehicle is shown in Table 2.2.\n(§3) A tremor suppression score was defined as the magnitude of tremor suppression in percent compared to vehicle: ≤24% (D), 25-55% (C), 56-70% (B) and 71-100% (A). Not tested (---).", "units": {"inhibition in vivo at 30 mg/kg": "%"}}
{"compound": "CC[C@H]1COc2cc(F)ccc2[C@H]1CS(N)(=O)=O", "note": "(stereo in doubt) [Compound 19, ((3R*,4S*)-3-ethyl-7-fluorochroman-4-yl)methanesulfonamide]", "inhibition in vivo at 30 mg/kg": "≤ 24"}
{"compound": "C[C@H]1COc2cc(F)ccc2[C@H]1NS(N)(=O)=O", "note": "(stereo in doubt) [Compound 74, (3(R*),4(S*))-7-fluoro-3-methyl-4-(sulfamoylamino)-3,4-dihydro-2(H)-chromene]", "inhibition in vivo at 30 mg/kg": "56 to 70"}
{"compound": "NS(=O)(=O)CC1CCOc2cc(F)cc(F)c21", "note": "(single isomer, unassigned) [Compound 17, (S*)-(5,7-difluorochroman-4-yl)methanesulfonamide]", "inhibition in vivo at 30 mg/kg": "56 to 70"}
{"compound": "Cc1ccc2c(c1)OCCC2CS(N)(=O)=O", "note": "(single isomer, unassigned) [Compound 57, (S*)-(7-methylchroman-4-yl)methanesulfonamide]", "inhibition in vivo at 30 mg/kg": "≤ 24"}
{"compound": "NS(=O)(=O)CC1CC2(CC2)Oc2cc(F)ccc21", "note": "(single isomer, unassigned) [Compound 1, (S*)-(7-fluorospiro[chromane-2,1′-cyclopropan]-4-yl)methanesulfonamide]", "inhibition in vivo at 30 mg/kg": "56 to 70"}
{"compound": "NS(=O)(=O)CC1CCOc2cc(F)c(F)cc21", "note": "(single isomer, unassigned) [Compound 29, (S*)-(6,7-difluorochroman-4-yl)methanesulfonamide]", "inhibition in vivo at 30 mg/kg": "56 to 70"}
{"compound": "CC1(C)CC(CS(N)(=O)=O)c2ccc(F)cc2O1", "note": "(single isomer, unassigned) [Compound 45, (R*)-(7-fluoro-2,2-dimethylchroman-4-yl)methanesulfonamide]", "inhibition in vivo at 30 mg/kg": "71 to 100"}
{"compound": "CC[C@H]1C[C@@H](CS(N)(=O)=O)c2ccc(F)cc2O1", "note": "(stereo in doubt) [Compound 12, ((2S*,4R*)-2-ethyl-7-fluorochroman-4-yl)methanesulfonamide]", "inhibition in vivo at 30 mg/kg": "56 to 70"}
{"compound": "C[C@H]1C[C@@H](CS(N)(=O)=O)c2ccccc2O1", "note": "(stereo in doubt) [Compound 34, ((2S*,4R*)-2-methylchroman-4-yl)methanesulfonamide]", "inhibition in vivo at 30 mg/kg": "56 to 70"}
{"compound": "C[C@@H]1COc2ccccc2[C@H]1CS(N)(=O)=O", "note": "(stereo in doubt) [Compound 41, ((3S*,4S*)-3-methylchroman-4-yl)methanesulfonamide]", "inhibition in vivo at 30 mg/kg": "56 to 70"}
{"compound": "C[C@H]1COc2cc(F)c(F)cc2[C@@H]1CS(N)(=O)=O", "note": "(stereo in doubt) [Compound 10, ((3R*,4R*)-6,7-difluoro-3-methylchroman-4-yl)methanesulfonamide]", "inhibition in vivo at 30 mg/kg": "≤ 24"}
{"test_system": "Harmaline-induced tremor", "assay": "Harmaline-induced Tremor Model", "type": "in vivo", "details": "adult male CD1 mice; test article 30 mg/kg i.p.; harmaline 30 mg/kg i.p.", "text": "as §1, §2, §3"}
{"compound": "N#Cc1ccc2c(c1)OCCC2CS(N)(=O)=O", "note": "(single isomer, unassigned) [Compound 60, (R*)-(7-cyanochroman-4-yl)methanesulfonamide]", "Tremor Suppression Activity (magnitude of tremor suppression in percent compared to vehicle)": "C (25-55% (C))"}
{"compound": "NS(=O)(=O)CC1CCOc2cc(Cl)ccc21", "note": "(single isomer, unassigned) [Compound 32, (R*)-(7-chlorochroman-4-yl)methanesulfonamide]", "Tremor Suppression Activity (magnitude of tremor suppression in percent compared to vehicle)": "B (56-70% (B))"}
{"compound": "CC1(C)COc2cc(F)ccc2C1CS(N)(=O)=O", "note": "(single isomer, unassigned) [Compound 44, (R*)-(7-fluoro-3,3-dimethylchroman-4-yl)methanesulfonamide]", "Tremor Suppression Activity (magnitude of tremor suppression in percent compared to vehicle)": "C (25-55% (C))"}
{"compound": "NS(=O)(=O)CC1CCOc2cc(F)c(F)cc21", "note": "(single isomer, unassigned) [Compound 30, (R*)-(6,7-difluorochroman-4-yl)methanesulfonamide]", "Tremor Suppression Activity (magnitude of tremor suppression in percent compared to vehicle)": "A (71-100% (A))"}
{"test_system": "Harmaline-induced tremor", "assay": "Harmaline-induced Tremor Model", "type": "in vivo", "details": "adult male CD1 mice; test article 30 mg/kg i.p.; harmaline 30 mg/kg i.p.; 10-20 Hz power over 20 min relative to 20-min baseline", "text": "as §1, §2, §3"}
{"compound": "CC1(C)CC(CS(N)(=O)=O)c2ccc(F)cc2O1", "note": "(single isomer, unassigned) [Compound 45, (R*)-(7-fluoro-2,2-dimethylchroman-4-yl)methanesulfonamide]", "Tremor power relative to baseline (mean ± s.e.m.)": "144 ± 35"}
{"compound": "CC[C@H]1C[C@@H](CS(N)(=O)=O)c2ccc(F)cc2O1", "note": "(stereo in doubt) [Compound 12, ((2S*,4R*)-2-ethyl-7-fluorochroman-4-yl)methanesulfonamide]", "Tremor power relative to baseline (mean ± s.e.m.)": "196 ± 59"}
{"compound": "CC1(C)COc2cc(F)ccc2C1CS(N)(=O)=O", "note": "(single isomer, unassigned) [Compound 44, (R*)-(7-fluoro-3,3-dimethylchroman-4-yl)methanesulfonamide]", "Tremor power relative to baseline (mean ± s.e.m.)": "518 ± 109"}
